Test results reported in US12121540B2, “CBL inhibitors and compositions for use in adoptive cell therapy” (Nurix Therapeutics, Inc., priority 2019, dated 2024).

Tested on: E.G7-OVA tumors
Test: Oral Cbl inhibitor treatment with expanded OT-1 cells in tumor-bearing mice
Format: in vivo, mouse
Description: Tumor volume was measured roughly every five days after cell transfer.
OT-1 cells were assessed in mouse blood 5 days and 20 days after transfer.

C[C@H]1CCCN(Cc2cc3c(c(C(F)(F)F)c2)CN(c2cccc([C@]4(c5nncn5C)C[C@@H](C)C4)c2)C3=O)C1 [compound 116]
Anti-tumor efficacy (tumor volume) of OT-1 cells (oral administration, OT-1 cells expanded with compound 103 plus IL-2, FIG. 18): enhanced the anti-tumor efficacy
Survival of mice (oral administration, OT-1 cells expanded with compound 103 plus IL-2, FIG. 19): enhanced survival
Persistence of OT-1 cells in mouse blood (oral, OT-1 cells expanded with Cbl inhibitor plus IL-2): longer persistence
Frequency of OT-1 cells in mouse blood (oral, OT-1 cells expanded with Cbl inhibitor plus IL-2, 5 and 20 days after transfer): increased frequency
